Test results published in patent US6150385A, “1,3,4-thiadiazoles useful for the treatment of CMV infections” (Pharmacia & Upjohn Company, priority 1999, dated 2000).

Each compound was assayed against T1, HCMV polymerase (Human cytomegalovirus, UniProt P08546) (assay: HCMV polymerase assay (scintillation proximity assay)). Conditions: percentage of inhibition at 25 μM concentration in CMV polymerase assay.
T1 construct: made in house; host or cells: SF-9 insect cells infected with recombinant baculovirus
T1 sequence (P08546 whole entry): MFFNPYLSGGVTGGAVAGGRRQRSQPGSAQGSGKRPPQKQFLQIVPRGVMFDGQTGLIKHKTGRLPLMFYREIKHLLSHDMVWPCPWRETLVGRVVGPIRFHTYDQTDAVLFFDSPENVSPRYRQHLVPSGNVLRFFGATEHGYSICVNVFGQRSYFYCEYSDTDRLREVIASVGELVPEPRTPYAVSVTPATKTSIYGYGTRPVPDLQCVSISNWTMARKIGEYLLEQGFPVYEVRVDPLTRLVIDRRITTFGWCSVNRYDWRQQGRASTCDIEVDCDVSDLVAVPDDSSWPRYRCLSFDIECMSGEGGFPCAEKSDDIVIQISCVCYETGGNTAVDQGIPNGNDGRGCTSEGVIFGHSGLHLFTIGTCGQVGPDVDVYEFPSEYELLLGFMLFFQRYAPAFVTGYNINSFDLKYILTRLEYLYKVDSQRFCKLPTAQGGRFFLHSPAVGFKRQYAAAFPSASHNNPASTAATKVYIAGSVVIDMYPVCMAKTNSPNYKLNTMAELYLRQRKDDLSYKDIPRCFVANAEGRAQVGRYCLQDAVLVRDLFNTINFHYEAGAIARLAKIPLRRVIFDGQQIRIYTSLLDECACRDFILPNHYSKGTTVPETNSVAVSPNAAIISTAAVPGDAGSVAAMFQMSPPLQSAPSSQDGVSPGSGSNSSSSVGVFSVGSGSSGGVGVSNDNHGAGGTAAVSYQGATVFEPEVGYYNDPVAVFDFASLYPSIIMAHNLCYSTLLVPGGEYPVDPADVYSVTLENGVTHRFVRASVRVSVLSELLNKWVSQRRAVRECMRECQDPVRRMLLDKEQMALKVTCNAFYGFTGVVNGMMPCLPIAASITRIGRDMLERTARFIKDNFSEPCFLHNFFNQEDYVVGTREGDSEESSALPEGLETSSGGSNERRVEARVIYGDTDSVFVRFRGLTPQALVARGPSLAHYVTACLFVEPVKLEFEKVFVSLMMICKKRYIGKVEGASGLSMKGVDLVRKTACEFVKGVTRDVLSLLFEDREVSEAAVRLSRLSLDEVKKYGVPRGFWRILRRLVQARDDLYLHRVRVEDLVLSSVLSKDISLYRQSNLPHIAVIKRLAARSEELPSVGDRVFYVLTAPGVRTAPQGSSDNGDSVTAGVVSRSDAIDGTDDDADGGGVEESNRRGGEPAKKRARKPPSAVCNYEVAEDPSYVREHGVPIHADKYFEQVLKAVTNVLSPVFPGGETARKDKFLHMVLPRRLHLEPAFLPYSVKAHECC
Type: biochemical
Procedure, shortened: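 Baculovirus/SF-9-expressed HCMV polymerase in 5.4 mM HEPES pH 7.5, 11.7 mM KCl, 4.5 mM MgCl2, 0.36 mg/ml BSA, 90 nM 3H-dTTP, with or without 2 mM CHAPS. Started with 6 nM biotinylated poly(dA)-oligo(dT), 30 min at 25 or 37 °C, EDTA-stopped, read by streptavidin-SPA counting; % inhibition at 25 μM.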

How did the inhibition at 25 µM turn out when `O=C(Nc1nnc(NC2CCCc3ccccc32)s1)c1cc2ccccc2s1` (centres unmarked) [compound 343, N-[5-(1,2,3,4-tetrahydro-1-naphthalenylamino)-1,3,4-thiadiazol-2-yl]-1-benzothiophene-2-carboxamide] was run?
The inhibition at 25 µM was 31.2%.

Which inhibition at 25 µM does the source give for `CCOC(=O)N1CCC(Nc2nnc(NC(=O)/C=C/c3ccccc3Cl)s2)CC1` [compound 344] here?
The inhibition at 25 µM was 31.1%.

`N#Cc1ccc(C(=O)Nc2nnc(NCCc3ccccc3)s2)cc1` [compound 345, 4-cyano-N-[5-(phenethylamino)-1,3,4-thiadiazol-2-yl]benzamide] was tested. Which inhibition at 25 µM did it give?
Its inhibition at 25 µM is 30.9%.

Which inhibition at 25 µM does the source give for `O=C(CCCCCl)Nc1nnc(NCCc2c[nH]c3ccccc23)s1` [compound 346, 5-chloro-N-(5-{[2-(1H-indol-3-yl)ethyl]amino}-1,3,4-thiadiazol-2-yl)pentanamide] here?
The inhibition at 25 µM was 30.7%.

For `O=C(Nc1nnc(NC2CCCc3ccccc32)s1)c1cccc([N+](=O)[O-])c1` (centres unmarked) [compound 347, 3-nitro-N-[5-(1,2,3,4-tetrahydro-1-naphthalenylamino)-1,3,4-thiadiazol-2-yl]benzamide], which inhibition at 25 µM is on record?
The inhibition at 25 µM was 30.6%.

With `COc1ccccc1C(=O)Nc1nnc(NCc2ccc(F)cc2)s1` [compound 348, N-{5-[(4-fluorobenzyl)amino]-1,3,4-thiadiazol-2-yl}-2-methoxybenzamide] as the compound, how does the inhibition at 25 µM read?
Its inhibition at 25 µM is 30.4%.

Which inhibition at 25 µM does the source give for `O=C(Nc1nnc(NCc2ccco2)s1)c1cc2ccccc2s1` [compound 349, N-{5-[(2-furylmethyl)amino]-1,3,4-thiadiazol-2-yl}-1-benzothiophene-2-carboxamide] here?
Its inhibition at 25 µM is 30.3%.

Which inhibition at 25 µM does the source give for `O=C(Nc1nnc(NCc2ccc(Cl)c(Cl)c2)s1)c1ccc([N+](=O)[O-])o1` [compound 350, N-{5-[(3,4-dichlorobenzyl)amino]-1,3,4-thiadiazol-2-yl}-5-nitro-2-furamide] here?
The inhibition at 25 µM was 30.3%.

`O=C(Nc1nnc(NCCc2c[nH]c3ccccc23)s1)c1ccc(Br)cc1` [compound 351, 4-bromo-N-(5-{[2-(1H-indol-3-yl)ethyl]amino}-1,3,4-thiadiazol-2-yl)benzamide] was tested. Which inhibition at 25 µM did it give?
Its inhibition at 25 µM is 30.3%.

`O=C(/C=C/c1ccccc1Cl)Nc1nnc(NCc2ccncc2)s1` [compound 352, (E)-3-(2-chlorophenyl)-N-[5-[(4-pyridinylmethyl)amino]-1,3,4-thiadiazol-2-yl}-2-propenamide] was tested. Which inhibition at 25 µM did it give?
The inhibition at 25 µM was 30.2%.

Which inhibition at 25 µM does the source give for `O=C(/C=C/c1ccccc1Cl)Nc1nnc(NC2CC2)s1` [compound 353, (E)-3-(2-chlorophenyl)-N-[5-(cyclopropylamino)-1,3,4-thiadiazol-2-yl]-2-propenamide] here?
Its inhibition at 25 µM is 30.2%.

`O=C(CCCCCl)Nc1nnc(NCCc2ccccc2)s1` [compound 354, 5-chloro-N-[5-(phenethylamino)-1,3,4-thiadiazol-2-yl]pentanamide] was tested. Which inhibition at 25 µM did it give?
The inhibition at 25 µM was 29.9%.

With `O=C(Nc1nnc(NC2CCc3ccccc32)s1)c1cccc([N+](=O)[O-])c1` (centres unmarked) [compound 355, N-[5-(2,3-dihydro-1H-inden-1-ylamino)-1,3,4-thiadiazol-2-yl]-3-nitrobenzamide] as the compound, how does the inhibition at 25 µM read?
The inhibition at 25 µM was 29.8%.

Which inhibition at 25 µM does the source give for `Cc1ccc(C(=O)Nc2nnc(NCCCCc3ccccc3)s2)cc1` [compound 356, 4-methyl-N-{5-[(4-phenylbutyl)amino]-1,3,4-thiadiazol-2-yl}benzamide] here?
Its inhibition at 25 µM is 29.6%.

How did the inhibition at 25 µM turn out when `O=C(/C=C/c1ccccc1Cl)Nc1nnc(NCCCCc2ccccc2)s1` [compound 357, (E)-3-(2-chlorophenyl)-N-{5-[(4-phenylbutyl)amino]-1,3,4-thiadiazol-2-yl}-2-propenamide] was run?
The inhibition at 25 µM was 29.4%.

With `CC(C)c1cc(C(C)C)c(C(=O)Nc2nnc(NCc3ccc4c(c3)OCO4)s2)c(C(C)C)c1` [compound 358, N-{5-[(1,3-benzodioxol-5-ylmethyl)amino]-1,3,4-thiadiazol-2-yl}-2,4,6-triisopropylbenzamide] as the compound, how does the inhibition at 25 µM read?
The inhibition at 25 µM was 29.3%.

How did the inhibition at 25 µM turn out when `Cc1ccc(C(=O)Nc2nnc(NCCc3ccccc3)s2)cc1` [compound 359, 4-methyl-N-[5-(phenethylamino)-1,3,4-thiadiazol-2-yl]benzamide] was run?
The inhibition at 25 µM was 29.1%.
